# Laboratory results as given in patent US12077537B2 (Gilead Sciences, Inc., priority 2020, dated 2024).
# pEC50: −log10 of the molar value.
# System: HIV-IIIb
# Experiment: Antiviral assay in MT4 cells
# Type: cell-based
# Conditions: Human immunodeficiency virus 1, MT4, 120 h; MT-4 cells mixed with HIV-IIIb at m.o.i. 0.003; 5 days at 37° C.; CellTiter-Glo luminescence; 50% decrease in signal, a measure of HIV-1 replication
# Procedure, shortened: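 Compound, tested at ten 3-fold dilutions in quadruplicate in 10% FBS medium, received MT-4 cells pre-mixed 1 hour with HIV-IIIb (m.o.i. 0.003). Protection was read as luminescent cell viability (CellTiter-Glo) after 5 days' culture at 37° C.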
row,pEC50,Compound
1,8.04,"COCCNc1nc2nc([C@H](Cc3cc(F)cc(F)c3)NC(=O)Cn3nc(C(F)(F)F)c4c3C(F)(F)[C@@H]3C[C@H]43)c(-c3cccc4c(NS(C)(=O)=O)nn(C)c34)cc2s1 [Example 69, 2-((3bS,4aR)-5,5-difluoro-3-(trifluoromethyl)-3b,4,4a,5-tetrahydro-1H-cyclopropa[3,4]cyclopenta[1,2-c]pyrazol-1-yl)-N—((S)-2-(3,5-difluorophenyl)-1-(2-((2-methoxyethyl)amino)-6-(1-methyl-3-(methylsulfonamido)-1H-indazol-7-yl)thiazolo[4,5-b]pyridin-5-yl)ethyl)acetamide]"
2,7.86,"Cn1nc(NS(C)(=O)=O)c2cccc(-c3cc4sc(NCC5(O)CC5)nc4nc3[C@H](Cc3cc(F)cc(F)c3)NC(=O)Cn3nc(C(F)(F)F)c4c3C(F)(F)[C@@H]3C[C@H]43)c21 [Example 70, 2-((3bS,4aR)-5,5-difluoro-3-(trifluoromethyl)-3b,4,4a,5-tetrahydro-1H-cyclopropa[3,4]cyclopenta[1,2-c]pyrazol-1-yl)-N—((S)-2-(3,5-difluorophenyl)-1-(2-(((1-hydroxycyclopropyl)methyl)amino)-6-(1-methyl-3-(methylsulfonamido)-1H-indazol-7-yl)thiazolo[4,5-b]pyridin-5-yl)ethyl)acetamide]"
3,7.28,"Cn1nc(NS(C)(=O)=O)c2cccc(-c3cc4sc(NCc5ncc[nH]5)nc4nc3[C@H](Cc3cc(F)cc(F)c3)NC(=O)Cn3nc(C(F)(F)F)c4c3C(F)(F)[C@@H]3C[C@H]43)c21 [Example 71, N—((S)-1-(2-(((1H-imidazol-2-yl)methyl)amino)-6-(1-methyl-3-(methylsulfonamido)-1H-indazol-7-yl)thiazolo[4,5-b]pyridin-5-yl)-2-(3,5-difluorophenyl)ethyl)-2-((3bS,4aR)-5,5-difluoro-3-(trifluoromethyl)-3b,4,4a,5-tetrahydro-1H-cyclopropa[3,4]cyclopenta[1,2-c]pyrazol-1-yl)acetamide]"
4,7.49,"Cn1nc(NS(C)(=O)=O)c2cccc(-c3cc4sc(N5CCNC(=O)C5)nc4nc3[C@H](Cc3cc(F)cc(F)c3)NC(=O)Cn3nc(C(F)(F)F)c4c3C(F)(F)[C@@H]3C[C@H]43)c21 [Example 72, 2-((3bS,4aR)-5,5-difluoro-3-(trifluoromethyl)-3b,4,4a,5-tetrahydro-1H-cyclopropa[3,4]cyclopenta[1,2-c]pyrazol-1-yl)-N—((S)-2-(3,5-difluorophenyl)-1-(6-(1-methyl-3-(methylsulfonamido)-1H-indazol-7-yl)-2-(3-oxopiperazin-1-yl)thiazolo[4,5-b]pyridin-5-yl)ethyl)acetamide]"
5,7.17,"Cn1nc(NS(C)(=O)=O)c2cccc(-c3cc4sc(N5CC(C(N)=O)C5)nc4nc3[C@H](Cc3cc(F)cc(F)c3)NC(=O)Cn3nc(C(F)(F)F)c4c3C(F)(F)[C@@H]3C[C@H]43)c21 [Example 73, 1-(5-((S)-1-(2-((3bS,4aR)-5,5-difluoro-3-(trifluoromethyl)-3b,4,4a,5-tetrahydro-1H-cyclopropa[3,4]cyclopenta[1,2-c]pyrazol-1-yl)acetamido)-2-(3,5-difluorophenyl)ethyl)-6-(1-methyl-3-(methylsulfonamido)-1H-indazol-7-yl)thiazolo[4,5-b]pyridin-2-yl)azetidine-3-carboxamide]"
6,7.24,"Cn1nc(NS(C)(=O)=O)c2cccc(-c3cc4sc(N5CCC5C(N)=O)nc4nc3[C@H](Cc3cc(F)cc(F)c3)NC(=O)Cn3nc(C(F)(F)F)c4c3C(F)(F)[C@@H]3C[C@H]43)c21 (stereo partly drawn) [Example 74, 1-(5-((S)-1-(2-((3bS,4aR)-5,5-difluoro-3-(trifluoromethyl)-3b,4,4a,5-tetrahydro-1H-cyclopropa[3,4]cyclopenta[1,2-c]pyrazol-1-yl)acetamido)-2-(3,5-difluorophenyl)ethyl)-6-(1-methyl-3-(methylsulfonamido)-1H-indazol-7-yl)thiazolo[4,5-b]pyridin-2-yl)azetidine-2-carboxamide]"
7,8.03,"Cn1nc(NS(C)(=O)=O)c2cccc(-c3cc4sc(NCCN5CCOCC5)nc4nc3[C@H](Cc3cc(F)cc(F)c3)NC(=O)Cn3nc(C(F)(F)F)c4c3C(F)(F)[C@@H]3C[C@H]43)c21 [Example 75, 2-((3bS,4aR)-5,5-difluoro-3-(trifluoromethyl)-3b,4,4a,5-tetrahydro-1H-cyclopropa[3,4]cyclopenta[1,2-c]pyrazol-1-yl)-N—((S)-2-(3,5-difluorophenyl)-1-(6-(1-methyl-3-(methylsulfonamido)-1H-indazol-7-yl)-2-((2-morpholinoethyl)amino)thiazolo[4,5-b]pyridin-5-yl)ethyl)acetamide]"
8,8.35,"Cn1nc(NS(C)(=O)=O)c2cccc(-c3cc4sc(N5CCN(C6COC6)CC5)nc4nc3[C@H](Cc3cc(F)cc(F)c3)NC(=O)Cn3nc(C(F)(F)F)c4c3C(F)(F)[C@@H]3C[C@H]43)c21 [Example 76, 2-((3bS,4aR)-5,5-difluoro-3-(trifluoromethyl)-3b,4,4a,5-tetrahydro-1H-cyclopropa[3,4]cyclopenta[1,2-c]pyrazol-1-yl)-N—((S)-2-(3,5-difluorophenyl)-1-(6-(1-methyl-3-(methylsulfonamido)-1H-indazol-7-yl)-2-(4-(oxetan-3-yl)piperazin-1-yl)thiazolo[4,5-b]pyridin-5-yl)ethyl)acetamide]"
9,7.80,"Cn1nc(NS(C)(=O)=O)c2cccc(-c3cc4sc(N5CC6(COC6)C5)nc4nc3[C@H](Cc3cc(F)cc(F)c3)NC(=O)Cn3nc(C(F)(F)F)c4c3C(F)(F)[C@@H]3C[C@H]43)c21 [Example 77, 2-((3bS,4aR)-5,5-difluoro-3-(trifluoromethyl)-3b,4,4a,5-tetrahydro-1H-cyclopropa[3,4]cyclopenta[1,2-c]pyrazol-1-yl)-N—((S)-2-(3,5-difluorophenyl)-1-(6-(1-methyl-3-(methylsulfonamido)-1H-indazol-7-yl)-2-(2-oxa-6-azaspiro[3.3]heptan-6-yl)thiazolo[4,5-b]pyridin-5-yl)ethyl)acetamide]"
10,7.37,"CC1CC1Nc1nc2nc([C@H](Cc3cc(F)cc(F)c3)NC(=O)Cn3nc(C(F)(F)F)c4c3C(F)(F)[C@@H]3C[C@H]43)c(-c3cccc4c(NS(C)(=O)=O)nn(C)c34)cc2s1 (stereo partly drawn) [Example 78, 2-((3bS,4aR)-5,5-difluoro-3-(trifluoromethyl)-3b,4,4a,5-tetrahydro-1H-cyclopropa[3,4]cyclopenta[1,2-c]pyrazol-1-yl)-N-((1S)-2-(3,5-difluorophenyl)-1-(6-(1-methyl-3-(methylsulfonamido)-1H-indazol-7-yl)-2-((2-methylcyclopropyl)amino)thiazolo[4,5-b]pyridin-5-yl)ethyl)acetamide]"
11,7.83,"CNc1nc2nc([C@H](Cc3cc(F)cc(F)c3)NC(=O)Cn3nc(C(F)(F)F)c4c3C(F)(F)[C@@H]3C[C@H]43)c(-c3cccc4c(NS(C)(=O)=O)nn(C)c34)cc2s1 [Example 79, 2-((3bS,4aR)-5,5-difluoro-3-(trifluoromethyl)-3b,4,4a,5-tetrahydro-1H-cyclopropa[3,4]cyclopenta[1,2-c]pyrazol-1-yl)-N—((S)-2-(3,5-difluorophenyl)-1-(6-(1-methyl-3-(methylsulfonamido)-1H-indazol-7-yl)-2-(methylamino)thiazolo[4,5-b]pyridin-5-yl)ethyl)acetamide]"
12,7.61,"Cn1nc(NS(C)(=O)=O)c2cccc(-c3cc4sc(N5CCC6(CC5)CNC(=O)O6)nc4nc3[C@H](Cc3cc(F)cc(F)c3)NC(=O)Cn3nc(C(F)(F)F)c4c3C(F)(F)[C@@H]3C[C@H]43)c21 [Example 80, 2-((3bS,4aR)-5,5-difluoro-3-(trifluoromethyl)-3b,4,4a,5-tetrahydro-1H-cyclopropa[3,4]cyclopenta[1,2-c]pyrazol-1-yl)-N—((S)-2-(3,5-difluorophenyl)-1-(6-(1-methyl-3-(methylsulfonamido)-1H-indazol-7-yl)-2-(2-oxo-1-oxa-3,8-diazaspiro[4.5]decan-8-yl)thiazolo[4,5-b]pyridin-5-yl)ethyl)acetamide]"
13,7.73,"Cn1nc(NS(C)(=O)=O)c2cccc(-c3cc4sc(NC5(C)CC5)nc4nc3[C@H](Cc3cc(F)cc(F)c3)NC(=O)Cn3nc(C(F)(F)F)c4c3C(F)(F)[C@@H]3C[C@H]43)c21 [Example 81, 2-((3bS,4aR)-5,5-difluoro-3-(trifluoromethyl)-3b,4,4a,5-tetrahydro-1H-cyclopropa[3,4]cyclopenta[1,2-c]pyrazol-1-yl)-N—((S)-2-(3,5-difluorophenyl)-1-(6-(1-methyl-3-(methylsulfonamido)-1H-indazol-7-yl)-2-((1-methylcyclopropyl)amino)thiazolo[4,5-b]pyridin-5-yl)ethyl)acetamide]"
14,8.18,"Cn1nc(NS(C)(=O)=O)c2cccc(-c3cc4sc(N5CCOCC5)nc4nc3[C@H](Cc3cc(F)cc(F)c3)NC(=O)Cn3nc(C(F)(F)F)c4c3C(F)(F)[C@@H]3C[C@H]43)c21 [Example 82, 2-((3bS,4aR)-5,5-difluoro-3-(trifluoromethyl)-3b,4,4a,5-tetrahydro-1H-cyclopropa[3,4]cyclopenta[1,2-c]pyrazol-1-yl)-N—((S)-2-(3,5-difluorophenyl)-1-(6-(1-methyl-3-(methylsulfonamido)-1H-indazol-7-yl)-2-morpholinothiazolo[4,5-b]pyridin-5-yl)ethyl)acetamide]"
15,7.28,"Cn1nc(NS(C)(=O)=O)c2cccc(-c3cc4sc(N5CCN(C(=O)C(C)(C)N)CC5)nc4nc3[C@H](Cc3cc(F)cc(F)c3)NC(=O)Cn3nc(C(F)(F)F)c4c3C(F)(F)[C@@H]3C[C@H]43)c21 [Example 83, N—((S)-1-(2-(4-(2-amino-2-methylpropanoyl)piperazin-1-yl)-6-(1-methyl-3-(methylsulfonamido)-1H-indazol-7-yl)thiazolo[4,5-b]pyridin-5-yl)-2-(3,5-difluorophenyl)ethyl)-2-((3bS,4aR)-5,5-difluoro-3-(trifluoromethyl)-3b,4,4a,5-tetrahydro-1H-cyclopropa[3,4]cyclopenta[1,2-c]pyrazol-1-yl)acetamide]"
